Results reported in patent publication US4994270A, “A54145 antibiotics and process for their production” (Eli Lilly and Company, priority 1988, dated 1991).
In brackets after ≈: the same amount, converted by molar mass. Several values for one entry are separate records, joined by “and”; a condition that tells them apart may be missing. Identical values can stand only once. Starred links: 1 amine or outer side, 2 acyl side, 3 side chain; linkers in the order of their positions; H or OH if unused. Positions of bridges follow the written chain, without caps; N, C: chain ends. Non-standard residues stand in square brackets, D forms with d. Residues, ends and D or L forms follow the SMILES beside them. ξ: configuration not given here. *: point of attachment. ξAsp(3ξ-OMe) = COC(C(=O)O)C(N)C(=O)O; X1 = CC(CC(=O)O)C(N[*:1])C(=O)[*:2]; ξAsn(3ξ-OH) = NC(=O)C(O)C(N)C(=O)O; Decanoyl = CCCCCCCCCC(=O)*; X2 = CC(C)CCCCCCC(=O)*; Sar = CNCC(=O)O

How the values were obtained:
Staphylococcus aureus = assay: ED50 in experimentally infected mice; type: in vivo; conditions: mice infected with Staphylococcus aureus; subcutaneous; doses given 1 and 4 hours postinfection
Experimental: (§1) The A54145 antibiotics have shown in vivo antimicrobial activity against experimentally-induced infections in laboratory animals. When two doses of test compound were administered to mice experimentally infected with Streptococcus pyogenes or Staphylococcus aureus, the activity observed was measured as an ED50 value [effective dose in mg/kg to protect 50% of the test animals: see Warren Wick, et al. J. Bacteriol. 81 233-235 (1961)].

Streptococcus pyogenes = assay: ED50 in experimentally infected mice; type: in vivo; conditions: mice infected with Streptococcus pyogenes, subcutaneous; for ED50 Value: doses given 1 and 4 hours postinfection
Experimental: as §1

[1] = tested on: Streptococcus pneumoniae Park1; assay: MIC, conventional agar-dilution assay; type: cell-based
Experimental: (§2) The A54145 antibiotics inhibit the growth of pathogenic bacteria. […] The MIC's in Table IX were determined by conventional agar-dilution assays.

[2] = tested on: Staphylococcus epidermidis EPI1; assay: MIC, conventional agar-dilution assay; type: cell-based
Experimental: as §2

[3] = tested on: Staphylococcus aureus S13E; assay: MIC, conventional agar-dilution assay; type: cell-based
Experimental: as §2

[4] = tested on: Staphylococcus epidermidis 222; assay: MIC, conventional agar-dilution assay; type: cell-based
Experimental: as §2

[5] = tested on: Streptococcus sp. group D X66; assay: MIC, conventional agar-dilution assay; type: cell-based
Experimental: as §2

[6] = tested on: Staphylococcus aureus X1.1; assay: MIC, conventional agar-dilution assay; type: cell-based
Experimental: as §2

[7] = tested on: Streptococcus sp. group 2041; assay: MIC, conventional agar-dilution assay; type: cell-based
Experimental: as §2

[8] = tested on: Staphylococcus aureus V41; assay: MIC, conventional agar-dilution assay; type: cell-based
Experimental: as §2

[9] = tested on: Staphylococcus aureus X400; assay: MIC, conventional agar-dilution assay; type: cell-based
Experimental: as §2

[10] = tested on: Streptococcus pyogenes C203; assay: MIC, conventional agar-dilution assay; type: cell-based
Experimental: as §2

[11] = Growth performance of starter pigs; type: in vivo
Text: In this test, a total of 145 barrows and gilts, averaging 22 pounds starting weight, were used to determine the effect of various dosages of A54145 on the growth performance of starter pigs. The pigs were fed an 18% crude protein corn-soy diet and were housed in a completely enclosed building with wire mesh floors elevated over a flush floor. The effect of the treatments on performance was studied for a 28-day trial period.

[12] = Chick growth performance test (weight gain, feed efficiency); type: in vivo, chicks; conditions: for Weight Gain Amt.: chicks 7-14 days of age; for Feed/Gain % Impr. / Weight Gain % Impr.: relative to the control mean
Text: In the tests, the compounds were given to chicks at the concentrations indicated in the feed. The test period was the 7-day period from 7-14 days of age of the birds. Growth performance (weight gain, feed consumption and feed efficiency) was compared to that of contemporary controls.

[13] = tested on: Staphylococcus aureus 209P; assay: Stimulation of in vitro activity by calcium ions; type: cell-based; set-up: dose or concentration left out as unconfirmed
Experimental: (§3) The in vitro activity of the A54145 antibiotics is stimulated by the presence of calcium ions. For example, the in vitro activity of A54145A against Staphylococcus aureus 209P and Streptococcus faecalis ATCC 29212 was stimulated about 100 times by the presence of Ca^++ ([…]).

[14] = tested on: Streptococcus faecalis ATCC 29212; assay: Stimulation of in vitro activity by calcium ions; type: cell-based; set-up: dose or concentration left out as unconfirmed
Experimental: as §3

| SMILES | ED50 Value (Streptococcus pyogenes) [mg/kg × 2] | MIC [1] [µg/mL] | MIC [2] [µg/mL] | MIC [3] [µg/mL] | MIC [4] [µg/mL] | MIC [5] [µg/mL] | MIC [6] [µg/mL] | MIC [7] [µg/mL] | MIC [8] [µg/mL] | MIC [9] [µg/mL] | MIC [10] [µg/mL] | weight gains in chickens (in words) [12] | other results |
| --- | --- | --- | --- | --- | --- | --- | --- | --- | --- | --- | --- | --- | --- |
| CCC(C)C1NC(=O)C(CCC(=O)O)NC(=O)C(CC(N)=O)NC(=O)CNC(=O)C(C(OC)C(=O)O)NC(=O)C(CCCCN)NC(=O)C(CC(=O)O)NC(=O)C(C)NC(=O)CN(C)C(=O)C(NC(=O)C(NC(=O)C(CCC(=O)O)NC(=O)C(Cc2c[nH]c3ccccc23)NC(=O)CCCCCCC(C)C)C(O)C(N)=O)C(C)OC1=O (stereo not drawn) [Component A54145A] (X2-WE[ξAsn(3ξ-OH)]T[Sar]ADK[ξAsp(3ξ-OMe)]GNEI; ester 4-C; configuration not given here) | 2.4 | 8 (≈ 4.86 µM) | 4 (≈ 2.43 µM) | 8 (≈ 4.86 µM) | 4 (≈ 2.43 µM) | 16 (≈ 9.73 µM) | 8 (≈ 4.86 µM) | 64 (≈ 38.9 µM) | 8 (≈ 4.86 µM) | 8 (≈ 4.86 µM) | 2 (≈ 1.22 µM) | increased weight gains | ED50 Value (Staphylococcus aureus): 3.3 mg/kg × 2; ED50 Value, individual values of two tests (Streptococcus pyogenes; individual tests behind the average): 1.6 mg/kg × 2 and 3.1 mg/kg × 2; feed/gain ratio in pigs (in words) [11]: improved the feed/gain ratio; Feed/Gain Ratio ([12]; Table XII, 20 g/ton): 1.546; Weight Gain Amt. ([12]; Table XII, 20 g/ton in feed): 168 g; Feed/Gain % Impr. ([12]; Table XII, 20 g/ton): 11.0%; Weight Gain % Impr. ([12]; Table XII, 20 g/ton): 26.3%; stimulation of in vitro activity by Ca++ [13]: about 100 times; stimulation of in vitro activity by Ca++ [14]: about 100 times |
| CCCCCCCCCC(=O)NC(Cc1c[nH]c2ccccc12)C(=O)NC(CCC(=O)O)C(=O)NC(C(=O)NC1C(=O)N(C)CC(=O)NC(C)C(=O)NC(CC(=O)O)C(=O)NC(CCCCN)C(=O)NC(C(OC)C(=O)O)C(=O)NCC(=O)NC(CC(N)=O)C(=O)NC(C(C)CC(=O)O)C(=O)NC(C(C)CC)C(=O)OC1C)C(O)C(N)=O (stereo not drawn) [Component A54145B] (Decanoyl-WE[ξAsn(3ξ-OH)]T[Sar]ADK[ξAsp(3ξ-OMe)]GN[X1]I; ester 4-C; configuration not given here) | 0.94 | 2 (≈ 1.21 µM) | 2 (≈ 1.21 µM) | 2 (≈ 1.21 µM) | 2 (≈ 1.21 µM) | 4 (≈ 2.41 µM) | 2 (≈ 1.21 µM) | 8 (≈ 4.82 µM) | 2 (≈ 1.21 µM) | 2 (≈ 1.21 µM) | 0.5 (≈ 0.301 µM) | increased weight gains | Feed/Gain Ratio ([12]; Table XIII, 5 g/ton): 1.887; Weight Gain Amt. ([12]; Table XIII, 5 g/ton in feed): 341 g; Feed/Gain % Impr. ([12]; Table XIII, 5 g/ton): 6.3%; Weight Gain % Impr. ([12]; Table XIII, 5 g/ton): 8.3%; Feed/Gain Ratio ([12]; Table XIII, 10 g/ton): 1.730; Weight Gain Amt. ([12]; Table XIII, 10 g/ton in feed): 392 g; Feed/Gain % Impr. ([12]; Table XIII, 10 g/ton): 14.1%; Weight Gain % Impr. ([12]; Table XIII, 10 g/ton): 24.4%; Feed/Gain Ratio ([12]; Table XIII, 20 g/ton): 1.785; Weight Gain Amt. ([12]; Table XIII, 20 g/ton in feed): 402 g; Feed/Gain % Impr. ([12]; Table XIII, 20 g/ton): 11.3%; Weight Gain % Impr. ([12]; Table XIII, 20 g/ton): 27.6% |
